Experimental findings from publication PMC9506587 (Toxins, 2022) are described below.

The subject of data set [1] is recombinant protein USTB-05-C (MlrC). Conditions: pH 7.3.
Data set [2] has the same test system. In words: in vitro. Conditions: Sphingopyxis sp. USTB-05, isolated enzyme, pH 7.3.

Turning to `C/C=C(/C(=O)N[C@@H](C(=O)O)[C@H](C)C(=O)N[C@@H](CCCNC(=N)N)C(=O)O)N(C)C(=O)CC[C@@H](NC(=O)[C@@H](C)[C@@H](N)/C=C/C(C)=C/[C@H](C)[C@H](Cc1ccccc1)OC)C(=O)O` [linear NOD], the “time to complete removal (degradation) of linear NOD by purified MlrC” value in data set [1] is listed as not above 6 h. Further, in data set [2], the metabolised at 4 h was approximately 98.7%.
